Experimental data reported in PubChem BioAssay (NCI).
Values joined by “and” are separate entries in the source; they are usually repeats but may differ in a detail not shown here. Identical values can stand only once.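 Five concentrations, 48 hours, 96-well plates. The concentration for 50% growth inhibition is given as GI50. TGI denotes the concentration required for complete inhibition of growth.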

Columns and labels:
Assay in all cases: NCI anticancer screen, dose series, 48 h
SNB-19 CNS = tested on: SNB-19 CNS
OVCAR-5 ovarian = tested on: OVCAR-5 ovarian
BT-549 breast = tested on: BT-549 breast
HOP-62 NSCLC = tested on: HOP-62 NSCLC
OVCAR-4 ovarian = tested on: OVCAR-4 ovarian
786-0 renal = tested on: 786-0 renal
MALME-3M melanoma = tested on: MALME-3M melanoma
OVCAR-3 ovarian = tested on: OVCAR-3 ovarian
DMS 114 small cell lung = tested on: DMS 114 small cell lung
HOP-18 NSCLC = tested on: HOP-18 NSCLC
KM20L2 colon = tested on: KM20L2 colon

`O=c1ccc2cc(O)c(O)cc2o1` showed a TGI (SNB-19 CNS) of over 100 µM, a TGI (OVCAR-5 ovarian) of over 100 µM and a TGI (BT-549 breast) of over 100 µM. It also gave a TGI (HOP-62 NSCLC) of over 100 µM, a TGI (OVCAR-4 ovarian) of over 100 µM and a TGI (786-0 renal) of over 100 µM. It also gave a TGI (MALME-3M melanoma) of over 100 µM and a TGI (OVCAR-3 ovarian) of over 100 µM.
For `NC(=O)NN=C(CS)CS`, the TGI (SNB-19 CNS) was 52.3 µM, the TGI (OVCAR-5 ovarian) was 55.7 µM and the TGI (DMS 114 small cell lung) was 87.5 µM. It also gave a TGI (HOP-18 NSCLC) of 66.4 µM, a TGI (HOP-62 NSCLC) of 41.9 µM and a TGI (KM20L2 colon) of 36.4 µM. It also gave a TGI (OVCAR-4 ovarian) of over 100 µM, a TGI (MALME-3M melanoma) of 40 µM and a TGI (OVCAR-3 ovarian) of 51.3 µM.
Work on `CN(C)c1ccc(/C=N\NC(=O)CSCC(=O)N/N=C/c2ccc(N(C)C)cc2)cc1` yielded a TGI (SNB-19 CNS) of over 100 µM, a TGI (OVCAR-5 ovarian) of over 100 µM and a TGI (BT-549 breast) of 80.4 µM. It also gave a TGI (HOP-62 NSCLC) of over 100 µM, a TGI (OVCAR-4 ovarian) of over 100 µM and a TGI (786-0 renal) of over 100 µM. The TGI (MALME-3M melanoma) was over 100 µM and the TGI (OVCAR-3 ovarian) was over 100 µM.
For `N#CC(c1ccccc1)c1nc2ccc(=N)cc-2n(O)c1C(C#N)c1ccccc1` (stereo not given), the TGI (SNB-19 CNS) was over 100 µM, the TGI (OVCAR-5 ovarian) was over 100 µM and the TGI (HOP-18 NSCLC) was over 100 µM. The TGI (HOP-62 NSCLC) was over 100 µM, the TGI (KM20L2 colon) was over 100 µM and the TGI (OVCAR-4 ovarian) was over 100 µM. For the same compound, the TGI (786-0 renal) was over 100 µM, the TGI (MALME-3M melanoma) was over 100 µM and the TGI (OVCAR-3 ovarian) was over 100 µM.
`CC(=O)C(O)N1C(=O)C=CC1=O` (stereo not given) showed a GI50 (OVCAR-5 ovarian) of 10500 µM, a TGI (BT-549 breast) of 24.8 µM and a GI50 (DMS 114 small cell lung) of 19.6 µM. For the same compound, the TGI (DMS 114 small cell lung) was 37.7 µM and 11.1 µM, the GI50 (HOP-18 NSCLC) was 17.2 µM and the TGI (HOP-18 NSCLC) was 31.3 µM and 40.5 µM. For the same compound, the GI50 (KM20L2 colon) was 17.9 µM and 1.9 µM, the TGI (KM20L2 colon) was 32.8 µM and 3.51 µM and the GI50 (OVCAR-3 ovarian) was 11600 µM.
For `O=C1c2c(c3c4ccccc4[nH]c3c3ccc4ccccc4c23)C(=O)N1CCN1CCCCC1`, the GI50 (SNB-19 CNS) was 0.94 µM, the TGI (SNB-19 CNS) was 46.4 µM and the GI50 (OVCAR-5 ovarian) was 1.52 µM. For the same compound, the TGI (OVCAR-5 ovarian) was 3.49 µM, the GI50 (HOP-62 NSCLC) was 1.06 µM and the TGI (HOP-62 NSCLC) was 3.43 µM. For the same compound, the GI50 (OVCAR-4 ovarian) was 2.03 µM, the TGI (OVCAR-4 ovarian) was 5.74 µM and the GI50 (MALME-3M melanoma) was 1.33 µM. For the same compound, the TGI (MALME-3M melanoma) was 2.92 µM, the GI50 (OVCAR-3 ovarian) was 1.99 µM and the TGI (OVCAR-3 ovarian) was 5.04 µM.
Work on `COc1ccc(N2C(=O)C3c4[nH]c5c(C)cccc5c4C4CCC(C(C)(C)C)CC4C3C2=O)cc1` (stereo not given) yielded a TGI (SNB-19 CNS) of over 10 µM, a TGI (OVCAR-5 ovarian) of over 10 µM and a TGI (HOP-62 NSCLC) of over 10 µM. It also gave a TGI (OVCAR-4 ovarian) of over 10 µM, a TGI (MALME-3M melanoma) of over 10 µM and a TGI (OVCAR-3 ovarian) of over 10 µM.
`NC(=O)CCCC(NCc1c2ccccc2nc2ccccc12)C(=O)O` (stereo not given) gave a TGI (OVCAR-5 ovarian) of over 100 µM, a TGI (DMS 114 small cell lung) of over 100 µM and a TGI (HOP-62 NSCLC) of over 100 µM. For the same compound, the TGI (KM20L2 colon) was over 100 µM, the TGI (OVCAR-4 ovarian) was 41.7 µM and the TGI (786-0 renal) was over 100 µM. The TGI (MALME-3M melanoma) was over 100 µM and the TGI (OVCAR-3 ovarian) was over 100 µM.
Work on `CN(C)CCCNc1ccc2ncn3c4ccccc4c(=O)c1c23` yielded a TGI (SNB-19 CNS) of over 100 µM, a TGI (OVCAR-5 ovarian) of 38.5 µM and a TGI (DMS 114 small cell lung) of over 100 µM. For the same compound, the TGI (HOP-18 NSCLC) was 68.4 µM, the TGI (HOP-62 NSCLC) was over 100 µM and the TGI (KM20L2 colon) was 30.4 µM. The TGI (OVCAR-4 ovarian) was 97.1 µM, the TGI (786-0 renal) was 33.2 µM and the TGI (MALME-3M melanoma) was 49.2 µM. For the same compound, the TGI (OVCAR-3 ovarian) was 56.2 µM.
For `CN1CCCCC1CCN1CCCCC1` (stereo not given), the TGI (SNB-19 CNS) was over 100 µM, the TGI (OVCAR-5 ovarian) was over 100 µM and the TGI (BT-549 breast) was over 100 µM. The TGI (HOP-62 NSCLC) was over 100 µM, the TGI (OVCAR-4 ovarian) was over 100 µM and the TGI (786-0 renal) was over 100 µM. For the same compound, the TGI (MALME-3M melanoma) was over 100 µM and the TGI (OVCAR-3 ovarian) was over 100 µM.
`CC12CCC(C(=O)OC1=O)C(C)(C)O2` (stereo not given) showed a TGI (SNB-19 CNS) of over 100 µM, a TGI (OVCAR-5 ovarian) of over 100 µM and a TGI (BT-549 breast) of over 100 µM. For the same compound, the TGI (HOP-62 NSCLC) was over 100 µM, the TGI (OVCAR-4 ovarian) was over 100 µM and the TGI (MALME-3M melanoma) was over 100 µM. The TGI (OVCAR-3 ovarian) was over 100 µM.
`CC1C(O)C2(Oc3cc4c(c5c3[C@@H](CC5O)[C@H]2C)CCC2Cc3nc5c(nc3C[C@@]42C)CC2CCC3C4=C[C@H]6O[C@@]7(O[C@@](C)(CO)C[C@@H]7O)C(C)[C@@]6(O)[C@]4(C)[C@@H](O)CC3[C@]2(C)C5)OC1(C)C` (stereo not given in full) was tested, and the TGI (OVCAR-5 ovarian) was 1.32 µM, the TGI (DMS 114 small cell lung) was 0.904 µM and the TGI (HOP-18 NSCLC) was over 3.67 µM. For the same compound, the TGI (HOP-62 NSCLC) was 0.239 µM, the TGI (KM20L2 colon) was 0.491 µM and the TGI (OVCAR-4 ovarian) was over 3.67 µM. It also gave a TGI (MALME-3M melanoma) of 0.66 µM and a TGI (OVCAR-3 ovarian) of 0.406 µM.
`O=NC1C(Cl)C2CC1C1C(Br)C(Br)CC21` (stereo not given) gave a TGI (SNB-19 CNS) of over 100 µM, a TGI (OVCAR-5 ovarian) of over 100 µM and a TGI (HOP-62 NSCLC) of over 100 µM. It also gave a TGI (OVCAR-4 ovarian) of over 100 µM, a TGI (786-0 renal) of over 100 µM and a TGI (MALME-3M melanoma) of over 100 µM. For the same compound, the TGI (OVCAR-3 ovarian) was over 100 µM.
With `Cc1c2cc[n+](CCN3CCCCC3)cc2c(C)c2c1[nH]c1ccc(O)cc12` the GI50 (SNB-19 CNS) was 1.96 µM, the TGI (SNB-19 CNS) was 10.2 µM and 29.1 µM and the GI50 (OVCAR-5 ovarian) was 25.2 µM. For the same compound, the TGI (OVCAR-5 ovarian) was 62.4 µM and > 77.3 µM, the TGI (BT-549 breast) was 28.7 µM and the TGI (DMS 114 small cell lung) was 21.6 µM. The TGI (HOP-18 NSCLC) was 37 µM, the TGI (HOP-62 NSCLC) was 13 µM and 18.3 µM and the TGI (KM20L2 colon) was 34.5 µM. The GI50 (OVCAR-4 ovarian) was 2.98 µM, the TGI (OVCAR-4 ovarian) was 7.39 µM and 24.6 µM and the TGI (786-0 renal) was 21.6 µM. The GI50 (MALME-3M melanoma) was 3.17 µM, the TGI (MALME-3M melanoma) was 25.9 µM and 19.2 µM and the GI50 (OVCAR-3 ovarian) was 11.1 µM. The TGI (OVCAR-3 ovarian) was 40.2 µM and > 50.3 µM.
Compound `C/C=C/[P+](c1ccccc1)(c1ccccc1)c1ccccc1` has a TGI (SNB-19 CNS) of 15 µM, a TGI (OVCAR-5 ovarian) of 33.2 µM and a TGI (BT-549 breast) of 3 µM. For the same compound, the TGI (HOP-62 NSCLC) was 27.4 µM, the TGI (OVCAR-4 ovarian) was 25.4 µM and the TGI (786-0 renal) was 37.6 µM. It also gave a TGI (MALME-3M melanoma) of 13.6 µM and a TGI (OVCAR-3 ovarian) of 7.94 µM.
With `COc1ccc(-c2c3c(nc4nc(SCCc5ccccc5)nc(N)c24)CCCC3)cc1OC` the TGI (SNB-19 CNS) was over 100 µM, the TGI (OVCAR-5 ovarian) was over 100 µM and the TGI (BT-549 breast) was over 100 µM. The TGI (HOP-62 NSCLC) was over 100 µM, the TGI (OVCAR-4 ovarian) was over 100 µM and the TGI (MALME-3M melanoma) was over 100 µM. For the same compound, the TGI (OVCAR-3 ovarian) was over 100 µM.
`Cc1cc(NCc2cc(Nc3ccnc4cc(Cl)ccc34)ccc2F)nc(N2CCCC2)n1` gave a GI50 (SNB-19 CNS) of 2.82 µM, a TGI (SNB-19 CNS) of 10.1 µM and a GI50 (HOP-62 NSCLC) of 1.42 µM. The TGI (HOP-62 NSCLC) was 3.14 µM, the GI50 (OVCAR-4 ovarian) was 1.27 µM and the TGI (OVCAR-4 ovarian) was 4.54 µM. It also gave a GI50 (OVCAR-3 ovarian) of 1.63 µM and a TGI (OVCAR-3 ovarian) of 3.22 µM.
For `Cc1ccc(S(=O)(=O)NCCSCCNS(=O)(=O)c2ccc(C)cc2)cc1`, the TGI (SNB-19 CNS) was over 100 µM, the TGI (OVCAR-4 ovarian) was over 100 µM and the TGI (OVCAR-3 ovarian) was over 100 µM.
With `CN(C)CCNc1nc(-c2ccc3ccccc3c2)nc2nc[nH]c12` the TGI (SNB-19 CNS) was 28.1 µM, the TGI (OVCAR-5 ovarian) was 26 µM and the TGI (BT-549 breast) was 23.4 µM. The TGI (HOP-62 NSCLC) was 23.1 µM, the TGI (OVCAR-4 ovarian) was 23.8 µM and the TGI (786-0 renal) was 32.1 µM. The TGI (MALME-3M melanoma) was 16.6 µM and the TGI (OVCAR-3 ovarian) was 21 µM.
`Cc1sc(Cc2ccccc2)nc1-c1ccc(N)cc1` was tested, and the TGI (SNB-19 CNS) was over 100 µM, the TGI (OVCAR-5 ovarian) was over 100 µM and the TGI (BT-549 breast) was 83.4 µM. For the same compound, the TGI (OVCAR-4 ovarian) was 51.1 µM, the TGI (MALME-3M melanoma) was 90.2 µM and the TGI (OVCAR-3 ovarian) was 68.8 µM.
Work on `COc1ccc([C@@H]2ON(C)[C@H]3CN(C)C(=O)[C@@H]23)cc1` yielded a TGI (SNB-19 CNS) of over 100 µM, a TGI (OVCAR-5 ovarian) of over 100 µM and a TGI (HOP-62 NSCLC) of over 100 µM. The TGI (OVCAR-4 ovarian) was over 100 µM and the TGI (OVCAR-3 ovarian) was over 100 µM.
